Source: patent US7932262B2 (Novartis AG, priority 2006, dated 2011)
pEC50, pIC50: −log10 of the molar value. Like-named read-outs stand apart in the source and are kept apart here.

What was measured:
[1] = molecular target: T1, PDK1 kinase (Homo sapiens, UniProt O15530); experiment: PDK1 Kinase Alpha Screen Assay; assay type: biochemical; settings: read-out: PDK1 IC50
T1 sequence (O15530 1-556): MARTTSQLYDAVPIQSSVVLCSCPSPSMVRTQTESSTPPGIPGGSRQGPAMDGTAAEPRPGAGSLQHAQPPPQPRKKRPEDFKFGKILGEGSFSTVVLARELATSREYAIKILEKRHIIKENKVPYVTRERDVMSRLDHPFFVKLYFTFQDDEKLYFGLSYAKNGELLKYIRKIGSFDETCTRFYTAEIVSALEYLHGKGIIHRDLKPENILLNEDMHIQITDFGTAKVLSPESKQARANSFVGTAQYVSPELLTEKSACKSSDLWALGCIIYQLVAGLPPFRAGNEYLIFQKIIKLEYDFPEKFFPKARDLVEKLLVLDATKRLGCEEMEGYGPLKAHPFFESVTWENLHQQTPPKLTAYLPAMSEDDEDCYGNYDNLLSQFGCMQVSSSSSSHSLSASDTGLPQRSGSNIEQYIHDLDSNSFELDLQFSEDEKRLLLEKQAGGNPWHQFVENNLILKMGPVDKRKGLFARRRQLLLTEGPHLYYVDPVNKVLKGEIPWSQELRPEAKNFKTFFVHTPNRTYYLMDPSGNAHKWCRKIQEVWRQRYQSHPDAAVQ
Outline: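 Biotinylated PDK1-4 peptide (50 nM) phosphorylated by PDK1 with 10 uM ATP in pH 7.5 Tris/MgCl2/DTT buffer, 2.5% DMSO, for 3-18 hours. EDTA stop, then AlphaScreen detection with phospho-(Ser/Thr) PKA substrate antibody and protein A/streptavidin beads after overnight room-temperature development.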

[2] = system: A2780 cells; experiment: Cell Proliferation Assay (Cell Titer Glo), A2780; assay type: cell-based; settings: Homo sapiens, read-out: CPEC50 A2780
Outline: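 Cells seeded at 1000/well, allowed to adhere 3-5 h, then exposed to DMSO-dissolved compounds for 3 days at 37° C., 5% CO2. Medium replaced before Cell Titer Glo addition; luminescence read after 10 min.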

[3] = system: PC-3 cells; experiment: Cell Proliferation Assay (Cell Titer Glo), PC-3 cell line; assay type: cell-based; settings: Homo sapiens, read-out: CPEC50 PC3
Outline: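 PC-3 cells, 1000 cells/well, left to adhere 3-5 h, then exposed for 3 days at 37° C to compounds as 1:3 serial dilutions from 500× DMSO stocks diluted in growth medium. Medium then replaced with fresh medium and viability read by Cell Titer Glo luminescence.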

[4] = cell proliferation, A2780 cells
[5] = PC-3, cell proliferation, PC3 cells
[6] = Cell Proliferation Assay, A2780
[7] = PC-3, Cell Proliferation Assay, PC3
[8] = 72 h, A2780 cells, 3 days incubation

Row | SMILES | pIC50 ([1]; PDK1 Kinase Alpha Screen Assay) | pEC50 [2, 4] | pEC50 [3, 5] | pEC50 [2, 6] | further results
1 | CN1CCN(c2ccc(-c3cc(F)cc4cnc(Nc5ccc(S(N)(=O)=O)cc5)nc34)cn2)CC1 [Compound 888, 4-(6-fluoro-8-(6-(4-methylpiperazin-1-yl)pyridin-3-yl)quinazolin-2-ylamino)benzenesulfonamide] | > 5.30 | > 5.30 | > 5.30 |  | 
2 | CN1CCN(C(=O)c2ccc(-c3c(-c4cnn(C)c4)ccc4cnc(Nc5ccc(S(N)(=O)=O)cc5)nc34)cc2)CC1 [Compound 906, 4-(7-(1-methyl-1H-pyrazol-4-yl)-8-(4-(4-methylpiperazine-1-carbonyl)phenyl)quinazolin-2-ylamino)benzenesulfonamide] | > 5.30 | > 5.30 | > 5.30 |  | 
3 | Cn1cc(-c2ccc3cnc(Nc4ccc(S(N)(=O)=O)cc4)nc3c2-c2ccccc2)cn1 [Compound 904, 4-(7-(1-methyl-1H-pyrazol-4-yl)-8-phenylquinazolin-2-ylamino)benzenesulfonamide] | > 5.30 | > 5.30 | > 5.30 |  | 
4 | NS(=O)(=O)c1ccc(Nc2ncc3cc(F)cc(-c4ccc(NCCN5CCCC5)nc4)c3n2)cc1 [Compound 892, 4-(6-fluoro-8-(6-(2-(pyrroidin-1-yl)ethylamino)pyridin-3-yl)quinazolin-2-ylamino)benzenesulfonamide] | > 5.30 | > 5.30 | > 5.30 |  | 
5 | NS(=O)(=O)c1ccc(Nc2ncc3cccc(OC4CCCC4)c3n2)cc1 [Compound 512, 4-(8-(cyclopentyloxy)quinazolin-2-ylamino)benzenesulfonamide] | > 5.30 |  |  | > 5.30 | pEC50 [3, 7]: > 5.30
6 | C#Cc1cc2cnc(Nc3ccc(N4CCOCC4)cc3)nc2cc1OC1CCNCC1 [Compound 646, 6-Ethynyl-N-(4-morpholinophenyl)-7-(piperidin-4-yloxy)quinazolin-2-amine] | > 5.30 |  |  | > 5.30 | pEC50 [3, 7]: > 5.30
7 | CC(C)N1CCN(Cc2cccc3cnc(Nc4ccc(S(N)(=O)=O)cc4)nc23)CC1 [Compound 925, 4-(8-((4-isopropylpiperazin-1-yl)methyl)quinazolin-2-ylamino)benzenesulfonamide] |  |  |  |  | pIC50 [1]: > 5.30; pEC50 ([2]; A2780 cells): > 5.30; pEC50 ([3]; PC-3, PC3 cells): 5.00 to 5.30
8 | NS(=O)(=O)c1ccc(Nc2ncc3cccc(Oc4ccccc4)c3n2)cc1 [Compound 405, 4-(8-phenoxyquinazolin-2-ylamino)benzenesulfonamide] | > 5.30 |  |  | > 5.30 | pEC50 [3, 7]: > 5.30
9 | Cn1cc(-c2ccc3cnc(Nc4ccc(S(N)(=O)=O)cc4)nc3c2-c2ccc(N3CCOCC3)nc2)cn1 [Compound 909, 4-(7-(1-methyl-1H-pyrazol-4-yl)-8-(6-morpholinopyridin-3-yl)quinazolin-2-ylamino)benzenesulfonamide] | > 5.30 | > 5.30 | > 5.30 |  | 
10 | CC(C)N1CCC(COc2cccc3cnc(Nc4ccc(S(N)(=O)=O)cc4)nc23)CC1 [Compound 519, 4-(8-((1-isopropylpiperidin-4-yl)methoxy)quinazolin-2-ylamino)benzenesulfonamide] | > 5.30 |  |  | > 5.30 | pEC50 [3, 7]: > 5.30
11 | CN1CCN(c2ccc(-c3c(-c4cnn(C)c4)ccc4cnc(Nc5ccc(S(N)(=O)=O)cc5)nc34)cn2)CC1 [Compound 910, 4-(7-(1-methyl-1H-pyrazol-4-yl)-8-(6-(4-methylpiperazin-1-yl)pyridin-3-yl)quinazolin-2-ylamino)benzenesulfonamide] | > 5.30 | > 5.30 | > 5.30 |  | 
12 | CN1CCN(C(=O)c2ccc(-c3cc(F)cc4cnc(Nc5ccc(S(N)(=O)=O)cc5)nc34)cc2)CC1 [Compound 915, 4-(6-fluoro-8-(4-(4-methylpiperazine-1-carbonyl)phenyl)quinazolin-2-ylamino)benzenesulfonamide] |  |  |  |  | pIC50 [1]: > 5.30; pEC50 ([2]; A2780 cells): > 5.30; pEC50 ([3]; PC-3, PC3 cells): > 5.30
13 | NS(=O)(=O)c1ccc(Nc2ncc3cc(F)cc(-c4ccc(N5CCOCC5)nc4)c3n2)cc1 [Compound 894, 4-(6-fluoro-8-(6-morpholinopyridin-3-yl)quinazolin-2-ylamino)benzenesulfonamide] | > 5.30 | > 5.30 | > 5.30 |  | 
14 | CN1CCC(Oc2ccc3cnc(Nc4ccc(S(=O)(=O)N5CCOCC5)cc4)nc3c2)CC1 [Compound 869, 7-(1-methylpiperidin-4-yloxy)-N-(4-(morpholinosulfonyl)phenyl)quinazolin-2-amine] | > 5.30 | > 5.30 | > 5.30 |  | 
15 | NS(=O)(=O)c1ccc(Nc2ncc3ccc(-c4ccccc4)c(OC4CCNCC4)c3n2)cc1 [Compound 911, 4-(7-phenyl-8-(piperidin-4-yloxy)quinazolin-2-ylamino)benzenesulfonamide] | > 5.30 | > 5.30 | > 5.30 |  | 
16 | CC(C)Nc1ccc(-c2cc(F)cc3cnc(Nc4ccc(S(N)(=O)=O)cc4)nc23)cn1 [Compound 914, 4-(6-fluoro-8-(6-(isopropylamino)pyridin-3-yl)quinazolin-2-ylamino)benzenesulfonamide] | > 5.30 | > 5.30 | > 5.30 |  | 
17 | CC(C)Oc1cccc2cnc(Nc3ccc(C(N)=O)cn3)nc12 [Compound 520, 6-(8-isopropoxyquinazolin-2-ylamino)nicotinamide] |  |  |  | 5.00 to 5.30 | pEC50 [3, 7]: > 5.30
18 | COCCNc1ccc(-c2c(-c3cnn(C)c3)ccc3cnc(Nc4ccc(S(N)(=O)=O)cc4)nc23)cn1 [Compound 908, 4-(8-(6-(2-methoxyethylamino)pyridin-3-yl)-7-(1-methyl-1H-pyrazol-4-yl)quinazolin-2-ylamino)benzenesulfonamide] | > 5.30 | > 5.30 | > 5.30 |  | 
19 | O=C(c1ccc(Nc2ncc3cc(-c4nccs4)c(OC4CCNCC4)cc3n2)cc1)N1CCOCC1 [Compound 649, morpholino(4-(7-(piperidin-4-yloxy)-6-(thiazol-2-yl)quinazolin-2-ylamino)phenyl)methanone] | > 5.30 |  |  | > 5.30 | pEC50 [3, 7]: > 5.30
20 | COCCNc1ccc(-c2cc(F)cc3cnc(Nc4ccc(S(N)(=O)=O)cc4)nc23)cn1 [Compound 893, 4-(6-fluoro-8-(6-(2-methoxyethylamino)pyridin-3-yl)quinazolin-2-ylamino)benzenesulfonamide] | > 5.30 | > 5.30 | > 5.30 |  | 
21 | CC(C)Oc1cccc2cnc(Nc3ccccn3)nc12 [Compound 521, 8-isopropoxy-N-(pyridin-2-yl)quinazolin-2-amine] |  |  |  | 5.00 to 5.30 | pEC50 [3, 7]: > 5.30
22 | CC(=O)c1ccc(-c2cccc3cnc(Nc4ccc(S(N)(=O)=O)cc4)nc23)cc1 [Compound 88, 4-[8-(4-Acetyl-phenyl)-quinazolin-2-ylamino]-benzenesulfonamide] |  |  |  |  | pIC50 [1]: > 5.30; pEC50 [2, 8]: 5.00 to 5.30
23 | NS(=O)(=O)c1ccc(Nc2ncc3ccc(C(=O)O)cc3n2)cc1 [Compound 559, 2-(4-sulfamoylphenylamino)quinazoline-7-carboxylic acid] | > 5.30 |  |  | 5.00 to 5.30 | 
24 | CC(=O)NCCNc1ccc(-c2cc(F)cc3cnc(Nc4ccc(S(N)(=O)=O)cc4)nc23)cn1 [Compound 891, N-(2-(5-(6-fluoro-2-(4-sulfamoylphenylamino)quinazolin-8-yl)pyridin-2-ylamino)ethyl)acetamide] | > 5.30 | > 5.30 |  |  | 
25 | NS(=O)(=O)c1ccc(Nc2ncc3cccc(OCCCn4c(=O)[nH]c5ccccc54)c3n2)cc1 [Compound 391, 4-(8-(3-(2-oxo-2,3-dihydro-1H-benzo[d]imidazol-1-yl)propoxy)quinazolin-2-ylamino)benzenesulfonamide] | > 5.30 |  |  | 5.00 to 5.30 | 
26 | NS(=O)(=O)c1ccc(Nc2ncc3cccc(-c4cccnc4)c3n2)cc1 [Compound 98, 4-(8-Pyridin-3-yl-quinazolin-2-ylamino)-benzenesulfonamide] |  |  |  |  | pIC50 [1]: > 5.30; pEC50 [2, 8]: 5.00 to 5.30
27 | COc1cncc(-c2ccc3cnc(Nc4ccc(S(N)(=O)=O)cc4)nc3c2OC2CCNCC2)c1 [Compound 858, 4-(7-(5-methoxypyridin-3-yl)-8-(piperidin-4-yloxy)quinazolin-2-ylamino)benzenesulfonamide] | > 5.30 | > 5.30 |  |  | 
